EPSA data for 9 compounds are collected here from patent US20260022143A1, “Cyclic Peptide Inhibitors of IL-23” (JANSSEN PHARMACEUTICA NV, priority 2022, published 2026).

Positions of bridges follow the written chain, without caps; N, C: chain ends. Non-standard residues stand in square brackets, D forms with d. Residues, ends and D or L forms follow the SMILES beside them. *: point of attachment. Me3N+CH2CH2(OCH2CH2)4CO = C[N+](C)(C)CCOCCOCCOCCOCCC(=O)*; Me3N+(CH2)2O(CH2)2O(CH2)2CO = C[N+](C)(C)CCOCCOCCC(=O)*; NH(CH2CH2O)2CH2CH2NMe3+ = C[N+](C)(C)CCOCCOCCN*; Trp(7-Me) = Cc1cccc2c(C[C@H](N)C(=O)O)c[nH]c12; X73 = C[N+](C)(C)CCOCCOCCNC(=O)CCCCCCCC*; 2Nal = N[C@@H](Cc1ccc2ccccc2c1)C(=O)O; AEF = NCCOc1ccc(C[C@H](N)C(=O)O)cc1; dNMeY = CN[C@H](Cc1ccc(O)cc1)C(=O)O; dLys(Me) = CNCCCC[C@@H](N)C(=O)O; 3Pal = N[C@@H](Cc1cccnc1)C(=O)O; Lys(Me) = CNCCCC[C@H](N)C(=O)O; Pen = CC(C)(S)[C@H](N)C(=O)O; αMeK = C[C@](N)(CCCCN)C(=O)O; Thp = NC1(C(=O)O)CCOCC1; X3 = C[N+](C)(C)CCCCC*; X91 = c1cc[n+](CC*)cc1; Sar = CNCC(=O)O

This data set can be described thus: Exposed Polar Surface Area (EPSA). The class given is physicochemical. The settings on record: SFC on Chirex 3014 column; sample 1 mM DMSO stock; read-out: EPSA. In outline: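 Polarity measured by SFC on a Chirex 3014 column (35 °C, 4 mL/min) with methanol/ammonium formate in CO2 as gradient eluent. Retention times were normalised to EPSA (Å^2) against eight reference compounds.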
For the compound `CC(=O)N[C@@H]1C(=O)N[C@@H](CC(=O)N(C)C)C(=O)N[C@@H]([C@@H](C)O)C(=O)N[C@@H](Cc2c[nH]c3c(C)cccc23)C(=O)N[C@@H](CCCCN(C)C(C)=O)C(=O)N[C@H](C(=O)N[C@@H](Cc2ccc(OCCCCC[N+](C)(C)C)cc2)C(=O)N[C@@H](Cc2ccc3ccccc3c2)C(=O)NC2(C(=O)N[C@@H](CCCCN(C)C(C)=O)C(=O)N[C@@H](CC(N)=O)C(=O)N[C@@H](Cc3cccnc3)C(=O)N(C)CC(=O)NCCOCCOCC[N+](C)(C)C)CCOCC2)C(C)(C)SSC1(C)C` [compound 219, MeCO-Pen(3)-N(N(Me)2)-T-7MeW-K(NMeAc)-Pen(3)-TMAPF-2Nal-THP-K(NMeAc)-N-3Pya-Sar-CO(NHPEG3a)] (Ac-[Pen]D(NMe2)T[Trp(7-Me)][Lys(Me)](Ac)[Pen]Y(X3)[2Nal][Thp][Lys(Me)](Ac)N[3Pal][Sar]-{NH(CH2CH2O)2CH2CH2NMe3+}; disulfide 1-6 (inferred)), the EPSA amounted to 139 A^2.

Take `CC(=O)NCCCC[C@@H]1NC(=O)[C@H](Cc2c[nH]c3c(C)cccc23)NC(=O)[C@H]([C@@H](C)O)NC(=O)[C@H](CC(N)=O)NC(=O)[C@@H](NC(=O)CCOCCOCC[N+](C)(C)C)C(C)(C)SSC(C)(C)[C@@H](C(=O)N[C@@H](Cc2ccc(OCCNC(=N)N)cc2)C(=O)N[C@@H](Cc2ccc3ccccc3c2)C(=O)NC2(C(=O)N[C@@H](CCC(=O)O)C(=O)N[C@@H](CC(N)=O)C(=O)N[C@@H](Cc3cncc(C)c3)C(=O)N(C)CC(N)=O)CCOCC2)NC1=O` [compound 514, cPEG3aCO-Pen(3)-N-T-7MeW-K(Ac)-Pen(3)-AEF(G)-2Nal-THP-E-N-5MePyridinAla-Sar-CONH2]: the EPSA was 248 A^2.

Take `COCCOCCOCCOCCOCCOCCOCCOCCNC(=O)CN(C)C(=O)[C@H](Cc1cccnc1)NC(=O)[C@H](CC(N)=O)NC(=O)[C@H](CCC(=O)O)NC(=O)C1(NC(=O)[C@H](Cc2ccc3ccccc3c2)NC(=O)[C@H](Cc2ccc(OCCN)cc2)NC(=O)[C@H]2NC(=O)[C@H](CCCCNC(C)=O)NC(=O)[C@H](Cc3c[nH]c4c(C)cccc34)NC(=O)[C@H]([C@@H](C)O)NC(=O)[C@H](CC(N)=O)NC(=O)[C@@H](NC(C)=O)C(C)(C)SSC2(C)C)CCOCC1` [compound 132]: the EPSA is 163 A^2.

Consider `CCCCCCCCCCCCCC(=O)N[C@@H](CCC(=O)NCCOCCOCC(=O)NCCOCCOCC(=O)N[C@@H](COCCOCC[N+](C)(C)C)C(=O)N[C@@H]1C(=O)N[C@@H](CC(=O)N(C)C)C(=O)N[C@@H]([C@@H](C)O)C(=O)N[C@@H](Cc2c[nH]c3c(C)cccc23)C(=O)N[C@@H](CCCCN(C)C(C)=O)C(=O)N[C@H](C(=O)N[C@@H](Cc2ccc(OCCOCCOCC[N+](C)(C)C)cc2)C(=O)N[C@@H](Cc2ccc3ccccc3c2)C(=O)NC2(C(=O)N[C@@H](CCCCN(C)C(C)=O)C(=O)N[C@@H](CC(N)=O)C(=O)N[C@@H](Cc3cccnc3)C(=O)N(C)CC(=O)N(C)C)CCOCC2)C(C)(C)SSC1(C)C)C(=O)O` (relative stereo) [compound 367, C14gEPEG2PEG2CO-APEG2Ser(S*)-Pen(3)-N(N(Me)2)-T-7MeW-K(NMeAc)-Pen(3)-APEG3F-2Nal-THP-K(NMeAc)-N-3Pya-Sar-CON(Me)2], for which the EPSA turned out to be 162 A^2.

With `CC(=O)NCCCC[C@@H]1NC(=O)[C@H](Cc2c[nH]c3c(C)cccc23)NC(=O)[C@H]([C@@H](C)O)NC(=O)[C@H](CC(N)=O)NC(=O)[C@@H](NC(C)=O)C(C)(C)SSC(C)(C)[C@@H](C(=O)N[C@@H](Cc2ccc(OCCN)cc2)C(=O)N[C@@H](Cc2ccc3ccccc3c2)C(=O)NC2(C(=O)N[C@H](CCCCN(C)C(=O)CCOCCOCCOCCOCC[N+](C)(C)C)C(=O)N[C@@H](CC(N)=O)C(=O)N[C@@H](Cc3cccnc3)C(=O)N(C)CC(N)=O)CCOCC2)NC1=O` [compound 111] (Ac-[Pen]NT[Trp(7-Me)]K(Ac)[Pen][AEF][2Nal][Thp][dLys(Me)](Me3N+CH2CH2(OCH2CH2)4CO)N[3Pal][Sar]-NH2; disulfide 1-6), the EPSA turned out to be 153 A^2.

With `CC(=O)N(C)CCCC[C@@H]1NC(=O)[C@H](Cc2c[nH]c3c(C)cccc23)NC(=O)[C@H]([C@@H](C)O)NC(=O)[C@H](CC(=O)N(C)C)NC(=O)[C@@H](NC(=O)CCOCCOCC[N+](C)(C)C)C(C)(C)SSC(C)(C)[C@@H](C(=O)N[C@@H](Cc2ccc(OCCCCCCCCC(=O)NCCOCCOCC[N+](C)(C)C)cc2)C(=O)N[C@@H](Cc2ccc3ccccc3c2)C(=O)NC2(C(=O)N[C@@H](CCCCN(C)C(C)=O)C(=O)N[C@@H](CC(N)=O)C(=O)N[C@@H](Cc3cccnc3)C(=O)N(C)CC(=O)N(C)C)CCOCC2)NC1=O` [compound 254, cPEG3aCO-Pen(3)-N(N(Me)2)-T-7MeW-K(NMeAc)-Pen(3)-YC8CO(NHPEG3a)-2Nal-THP-K(NMeAc)-N-3Pya-Sar-CON(Me)2] ({Me3N+(CH2)2O(CH2)2O(CH2)2CO}-[Pen]D(NMe2)T[Trp(7-Me)][Lys(Me)](Ac)[Pen]Y(X73)[2Nal][Thp][Lys(Me)](Ac)N[3Pal][Sar]-NMe2; disulfide 1-6), the EPSA was found to be 144 A^2.

For the compound `CC(=O)N(C)CCCC[C@@H]1NC(=O)[C@H](Cc2c[nH]c3c(C)cccc23)NC(=O)[C@H]([C@@H](C)O)NC(=O)[C@H](CC(=O)N(C)C)NC(=O)[C@@H](NC(=O)CCOCCOCC[N+](C)(C)C)C(C)(C)SSC(C)(C)[C@@H](C(=O)N[C@@H](Cc2ccc(OCC[n+]3ccccc3)cc2)C(=O)N[C@@H](Cc2ccc3ccccc3c2)C(=O)NC2(C(=O)N[C@@H](CCCCN(C)C(C)=O)C(=O)N[C@@H](CC(N)=O)C(=O)N[C@@H](Cc3cccnc3)C(=O)N(C)CC(=O)N(C)C)CCOCC2)NC1=O` [compound 231, cPEG3aCO-Pen(3)-N(N(Me)2)-T-7MeW-K(NMeac)-Pen(3)-NPyEF-2Nal-THP-K(NMeAc)-N-3Pya-Sar-CON(Me)2] ({Me3N+(CH2)2O(CH2)2O(CH2)2CO}-[Pen]D(NMe2)T[Trp(7-Me)][Lys(Me)](Ac)[Pen]Y(X91)[2Nal][Thp][Lys(Me)](Ac)N[3Pal][Sar]-NMe2; disulfide 1-6), the EPSA was determined as 147 A^2.

As for `CC(=O)NCCCC[C@@H]1NC(=O)[C@H](Cc2c[nH]c3c(C)cccc23)NC(=O)[C@H]([C@@H](C)O)NC(=O)[C@H](CC(N)=O)NC(=O)[C@@H](NC(C)=O)C(C)(C)SSC(C)(C)[C@@H](C(=O)N[C@@H](Cc2ccc(OCCN)cc2)C(=O)N[C@@H](Cc2ccc3ccccc3c2)C(=O)N[C@@](C)(CCCCN)C(=O)N[C@@H](CCCCNC(C)=O)C(=O)N[C@@H](CC(N)=O)C(=O)N[C@H](CO)C(=O)N(C)[C@H](Cc2ccc(O)cc2)C(N)=O)NC1=O` [compound 19, MeCO-Pen(3)-N-T-7MeW-K(Ac)-Pen(3)-AEF-2Nal-aMeK-K(Ac)-N-s-NMeDTyr-CONH2] (Ac-[Pen]NT[Trp(7-Me)]K(Ac)[Pen][AEF][2Nal][αMeK]K(Ac)N[dS][dNMeY]-NH2; disulfide 1-6), the EPSA is 171 A^2.

As to `CC(=O)N[C@@H]1C(=O)N[C@@H](CC(N)=O)C(=O)N[C@@H]([C@@H](C)O)C(=O)N[C@@H](Cc2c[nH]c3c(C)cccc23)C(=O)N[C@@H](CCC(=O)N(C)C)C(=O)N[C@H](C(=O)N[C@@H](Cc2ccc(OCCN)cc2)C(=O)N[C@@H](Cc2ccc3ccccc3c2)C(=O)NC2(C(=O)N[C@@H](CCC(=O)N(C)C)C(=O)N[C@@H](CC(N)=O)C(=O)N[C@@H](Cc3cccnc3)C(=O)N(C)CC(N)=O)CCOCC2)C(C)(C)SSC1(C)C` [compound 138] (Ac-[Pen]NT[Trp(7-Me)]E(NMe2)[Pen][AEF][2Nal][Thp]E(NMe2)N[3Pal][Sar]-NH2; disulfide 1-6 (inferred)), the EPSA is 159 A^2.
